{"source": "PubChem BioAssay (NCI)", "assay_in_all_cases": "inhibition of tumour cell growth, NCI panel, 48 h", "key": {"[1]": {"system": "MALME-3M melanoma"}, "[2]": {"system": "TK-10 renal"}, "[3]": {"system": "MCF7 breast"}, "[4]": {"system": "KM12 colon"}, "[5]": {"system": "UACC-62 melanoma"}, "[6]": {"system": "HL-60(TB) leukemia"}, "[7]": {"system": "HOP-92 NSCLC"}, "[8]": {"system": "HT29 colon"}, "[9]": {"system": "SNB-19 CNS"}, "[10]": {"system": "PC-3 prostate"}, "[11]": {"system": "HS 578T breast"}, "[12]": {"system": "HCC-2998 colon"}, "[13]": {"system": "SW-620 colon"}, "[14]": {"system": "SK-MEL-5 melanoma"}, "[15]": {"system": "NCI-H226 lung"}, "[16]": {"system": "MDA-MB-231 breast"}, "[17]": {"system": "OVCAR-4 ovarian"}, "[18]": {"system": "K-562 leukemia"}, "[19]": {"system": "OVCAR-8 ovarian"}, "[20]": {"system": "RPMI-8226 leukemia"}, "[21]": {"system": "CCRF-CEM leukemia"}, "[22]": {"system": "HCT-15 colon"}, "[23]": {"system": "MOLT-4 leukemia"}, "[24]": {"system": "SF-268 CNS"}, "[25]": {"system": "M14 melanoma"}, "[26]": {"system": "LOX IMVI melanoma"}}, "note": "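1) Cells in 96-well plates. 2) Compound, 48 h, 5 concentrations. 3) Linear interpolation between surrounding doses. 4) Unreached endpoint = highest concentration. The concentration for 50% growth inhibition is given as GI50. TGI: total growth inhibition.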"}
{"smiles": "CC(=O)Nc1cccc(-n2cnc3cc(-c4ccc(O)cc4)ccc32)c1", "values": [{"measurement": "GI50", "setting": "[1]", "value": 0.583, "unit": "µM"}, {"measurement": "TGI", "setting": "[1]", "value": 49.8, "unit": "µM"}, {"measurement": "GI50", "setting": "[2]", "value": 5.95, "unit": "µM"}, {"measurement": "TGI", "setting": "[2]", "value": 47.4, "unit": "µM"}, {"measurement": "GI50", "setting": "[3]", "value": 0.377, "unit": "µM"}, {"measurement": "TGI", "setting": "[3]", "value": 22.6, "unit": "µM"}, {"measurement": "GI50", "setting": "[4]", "value": 5.42, "unit": "µM"}, {"measurement": "TGI", "setting": "[4]", "value": 68.2, "unit": "µM"}, {"measurement": "GI50", "setting": "[5]", "value": 0.35, "unit": "µM"}, {"measurement": "TGI", "setting": "[5]", "value": 17.6, "unit": "µM"}, {"measurement": "GI50", "setting": "[6]", "value": 0.313, "unit": "µM"}, {"measurement": "TGI", "setting": "[6]", "value": 10.6, "unit": "µM"}, {"measurement": "GI50", "setting": "[7]", "value": 0.94, "unit": "µM"}, {"measurement": "TGI", "setting": "[7]", "value": 28.8, "unit": "µM"}, {"measurement": "GI50", "setting": "[8]", "value": 3.24, "unit": "µM"}, {"measurement": "TGI", "setting": "[8]", "value": 19, "unit": "µM"}, {"measurement": "GI50", "setting": "[9]", "value": 0.872, "unit": "µM"}, {"measurement": "TGI", "setting": "[9]", "value": "> 100", "unit": "µM"}, {"measurement": "GI50", "setting": "[10]", "value": 1.43, "unit": "µM"}, {"measurement": "TGI", "setting": "[10]", "value": 42.1, "unit": "µM"}, {"measurement": "GI50", "setting": "[11]", "value": 0.254, "unit": "µM"}, {"measurement": "TGI", "setting": "[11]", "value": 2.46, "unit": "µM"}, {"measurement": "GI50", "setting": "[12]", "value": 3.46, "unit": "µM"}, {"measurement": "TGI", "setting": "[12]", "value": 49, "unit": "µM"}, {"measurement": "GI50", "setting": "[13]", "value": 0.368, "unit": "µM"}, {"measurement": "TGI", "setting": "[13]", "value": 36.5, "unit": "µM"}, {"measurement": "GI50", "setting": "[14]", "value": 0.316, "unit": "µM"}, {"measurement": "TGI", "setting": "[14]", "value": 15.8, "unit": "µM"}, {"measurement": "GI50", "setting": "[15]", "value": 0.779, "unit": "µM"}, {"measurement": "TGI", "setting": "[15]", "value": 4.26, "unit": "µM"}, {"measurement": "GI50", "setting": "[16]", "value": 0.46, "unit": "µM"}, {"measurement": "TGI", "setting": "[16]", "value": "> 100", "unit": "µM"}, {"measurement": "GI50", "setting": "[17]", "value": 2.42, "unit": "µM"}, {"measurement": "TGI", "setting": "[17]", "value": 43.1, "unit": "µM"}, {"measurement": "GI50", "setting": "[18]", "value": 0.169, "unit": "µM"}, {"measurement": "TGI", "setting": "[18]", "value": "> 100", "unit": "µM"}, {"measurement": "GI50", "setting": "[19]", "value": 0.618, "unit": "µM"}, {"measurement": "TGI", "setting": "[19]", "value": 17, "unit": "µM"}, {"measurement": "GI50", "setting": "[20]", "value": 0.494, "unit": "µM"}, {"measurement": "TGI", "setting": "[20]", "value": 9.23, "unit": "µM"}, {"measurement": "GI50", "setting": "[21]", "value": 0.515, "unit": "µM"}, {"measurement": "TGI", "setting": "[21]", "value": 68.2, "unit": "µM"}, {"measurement": "GI50", "setting": "[22]", "value": 0.333, "unit": "µM"}, {"measurement": "TGI", "setting": "[22]", "value": 18.9, "unit": "µM"}, {"measurement": "GI50", "setting": "[23]", "value": 0.428, "unit": "µM"}, {"measurement": "TGI", "setting": "[23]", "value": 16.2, "unit": "µM"}, {"measurement": "GI50", "setting": "[24]", "value": 0.982, "unit": "µM"}, {"measurement": "TGI", "setting": "[24]", "value": 57.8, "unit": "µM"}, {"measurement": "GI50", "setting": "[25]", "value": 0.289, "unit": "µM"}, {"measurement": "TGI", "setting": "[25]", "value": 77, "unit": "µM"}, {"measurement": "GI50", "setting": "[26]", "value": 0.523, "unit": "µM"}, {"measurement": "TGI", "setting": "[26]", "value": 16.3, "unit": "µM"}]}
